From BindingDB's records for PubMed 38436272 (Sorbonne University, 2024)

Target: Forkhead box protein O3 (Homo sapiens, UniProt O43524)
Test: Induction of nuclear translocation of FOXO3 in human U2OS cells by inverted microscopic analysis

Chain of Forkhead box protein O3 (O43524 whole entry): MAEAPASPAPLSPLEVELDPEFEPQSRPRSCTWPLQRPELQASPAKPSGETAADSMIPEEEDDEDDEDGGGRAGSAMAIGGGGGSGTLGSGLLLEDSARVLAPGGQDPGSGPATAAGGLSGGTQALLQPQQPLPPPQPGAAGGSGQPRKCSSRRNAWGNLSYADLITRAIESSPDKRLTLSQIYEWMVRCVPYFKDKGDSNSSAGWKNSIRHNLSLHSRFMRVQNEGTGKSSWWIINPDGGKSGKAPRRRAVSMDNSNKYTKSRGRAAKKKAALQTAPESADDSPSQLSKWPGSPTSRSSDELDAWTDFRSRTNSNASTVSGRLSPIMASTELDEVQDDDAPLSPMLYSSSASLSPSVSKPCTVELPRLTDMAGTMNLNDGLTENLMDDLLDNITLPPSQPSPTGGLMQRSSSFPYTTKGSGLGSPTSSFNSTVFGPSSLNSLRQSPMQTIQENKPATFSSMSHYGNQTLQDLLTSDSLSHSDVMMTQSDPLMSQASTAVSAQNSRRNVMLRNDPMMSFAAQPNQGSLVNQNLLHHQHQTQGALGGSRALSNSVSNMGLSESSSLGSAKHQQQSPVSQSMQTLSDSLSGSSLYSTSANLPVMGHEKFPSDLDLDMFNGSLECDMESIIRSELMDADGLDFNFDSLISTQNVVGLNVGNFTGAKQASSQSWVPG

Which EC50 does the source give for COc1cc(/C=C/C(=O)N2CCC=CC2=O)cc(OC)c1OC [CHEBI:8241] here?
The EC50 was 37.7 µM.
